Data: PubChem BioAssay (NCI)
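The compound was tested at five concentrations on cells cultured in 96-well plates, with a 48-hour exposure period. Definition used: TGI = concentration required for complete inhibition of growth.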

These molecules were tested on OVCAR-5 ovarian (assay: growth of human tumour cells (NCI), 48 h).

Compound | TGI [µM]
CNc1c2cccc(C)c2nc2c(C(=O)NCCN(C)C)cccc12 | 1.1
CCC(Sc1cc(Cl)c(C)cc1S(=O)(=O)Nc1nc(N)nc(N(C)C)n1)C(=O)O (configuration not stated) | > 10
O=c1c(C=Nc2ccccc2Cl)c(O)n(-c2ccccc2)c(=O)n1-c1ccccc1 | > 100
CCOC(=O)NNC(=O)C1CSC(c2ccccc2)N1C(C)=O (configuration not stated) | > 100
CC(C)(C)O/C=C1/C(=O)OC2C[C@@H](O[Si](C)(C)C(C)(C)C)CC12 (some centres not stated) | > 100
COc1ccc2nc3c([N+](=O)[O-])ccc4c3c(c2c1)N=CN4CCCN(C)C | 25.5
O=C1CC(=O)NC(=NN2C(=O)/C(=C/C(=O)c3ccco3)N=C2c2ccccc2)N1 | > 100

Each molecule was assayed on OVCAR-8 ovarian (assay: growth of human tumour cells (NCI), 48 h).

Compound | TGI [µM]
Cc1oc2c(c1C)S(=O)(=O)C(C#N)C(c1ccccc1)N2 (configuration not stated) | > 100
CC(=O)Oc1cc2c(n(C)c1=O)-c1ccccc1C2 | > 100
COc1ccc2cc(Oc3ccc(Cl)cc3)c(=O)oc2c1 | > 100
CN(C)C=C1C(=O)c2c(Br)sc(Br)c2C1=O | 72.3
CCN(CC)C(=C(C(Cl)=C(Cl)Cl)[N+](=O)[O-])N(CC)CC | > 100
CCOC(=O)C(C(=O)OCC)=C1NC2(c3ccccc3Nc3ccc(C)cc32)C(C#N)S1 (configuration not stated) | 35
COC(=O)Nc1nc2ccc(S(=O)(=O)NC(CC(C)C)C(=O)OC)cc2[nH]1 (configuration not stated) | > 100
OC(CCN1CCCCC1)(c1ccccc1)c1ccccc1 | > 100
CC(C)(C)[Si](C)(C)O[C@@H](C(=O)OC1C=CCCC1)[C@@H](NC(=O)c1ccccc1)c1ccccc1 (some centres not stated) | > 100
O=C(Nc1cccc2ccccc12)Nn1cnnc1 | > 100
Cc1oc2c(c1C)S(=O)(=O)C(C#N)=C(c1ccccc1)N2 | > 100
Cc1ccc2c(c1)C(=O)/C(=N/Nc1ccc(Cl)cc1)CCO2 | > 100
CN(C)c1ccc(/C=N\NC(=O)c2ccccc2Nc2ccccc2C(=O)N/N=C/c2ccc(N(C)C)cc2)cc1 | > 100
CC(=O)O[C@@H]1CC[C@@]2(C)C(CC[C@H]3[C@@H]4CC[C@H]([C@H](C)CCc5nc6ccc(C)cc6[nH]5)[C@@]4(C)CC[C@@H]32)C1 (some centres not stated) | > 100
C=C1C(=O)OC2/C=C(\CO)C3OC3C3OC3(C)CC(OC(=O)/C(=C/C)CO)C12 (configuration not stated) | > 100
Cc1csc2nc3c(cnn3C)c(=S)n12 | > 100
C/C1=C/C(C)CC(C)OC(=O)C(C)NC(=O)C(Cc2ccc(O)c(I)c2)N(C)C(=O)CNC(=O)C(C)C1 (configuration not stated) | > 100
Cc1ccc(-n2cnc3c(N)nc(N)nc32)cc1 | > 100
CNc1c2cccc(C)c2nc2c(C(=O)NCCN(C)C)cccc12 | 0.297
CCC(Sc1cc(Cl)c(C)cc1S(=O)(=O)Nc1nc(N)nc(N(C)C)n1)C(=O)O (configuration not stated) | > 10
O=c1c(C=Nc2ccccc2Cl)c(O)n(-c2ccccc2)c(=O)n1-c1ccccc1 | > 100
CCOC(=O)NNC(=O)C1CSC(c2ccccc2)N1C(C)=O (configuration not stated) | > 100
CC(C)(C)O/C=C1/C(=O)OC2C[C@@H](O[Si](C)(C)C(C)(C)C)CC12 (some centres not stated) | > 100
COc1ccc2nc3c([N+](=O)[O-])ccc4c3c(c2c1)N=CN4CCCN(C)C | 25.7
O=C1CC(=O)NC(=NN2C(=O)/C(=C/C(=O)c3ccco3)N=C2c2ccccc2)N1 | > 100

These molecules were tested on PC-3 prostate (assay: growth of human tumour cells (NCI), 48 h).

Compound | TGI [µM]
Cc1oc2c(c1C)S(=O)(=O)C(C#N)C(c1ccccc1)N2 (configuration not stated) | > 100
CC(=O)Oc1cc2c(n(C)c1=O)-c1ccccc1C2 | > 100
COc1ccc2cc(Oc3ccc(Cl)cc3)c(=O)oc2c1 | > 100
CN(C)C=C1C(=O)c2c(Br)sc(Br)c2C1=O | 49.9
CCN(CC)C(=C(C(Cl)=C(Cl)Cl)[N+](=O)[O-])N(CC)CC | > 100
CCOC(=O)C(C(=O)OCC)=C1NC2(c3ccccc3Nc3ccc(C)cc32)C(C#N)S1 (configuration not stated) | 13.7
COC(=O)Nc1nc2ccc(S(=O)(=O)NC(CC(C)C)C(=O)OC)cc2[nH]1 (configuration not stated) | > 100
OC(CCN1CCCCC1)(c1ccccc1)c1ccccc1 | > 100
CC(C)(C)[Si](C)(C)O[C@@H](C(=O)OC1C=CCCC1)[C@@H](NC(=O)c1ccccc1)c1ccccc1 (some centres not stated) | > 100
O=C(Nc1cccc2ccccc12)Nn1cnnc1 | > 100
Cc1oc2c(c1C)S(=O)(=O)C(C#N)=C(c1ccccc1)N2 | > 100
Cc1ccc2c(c1)C(=O)/C(=N/Nc1ccc(Cl)cc1)CCO2 | > 100
CN(C)c1ccc(/C=N\NC(=O)c2ccccc2Nc2ccccc2C(=O)N/N=C/c2ccc(N(C)C)cc2)cc1 | > 100
CC(=O)O[C@@H]1CC[C@@]2(C)C(CC[C@H]3[C@@H]4CC[C@H]([C@H](C)CCc5nc6ccc(C)cc6[nH]5)[C@@]4(C)CC[C@@H]32)C1 (some centres not stated) | > 100
C=C1C(=O)OC2/C=C(\CO)C3OC3C3OC3(C)CC(OC(=O)/C(=C/C)CO)C12 (configuration not stated) | > 100
Cc1csc2nc3c(cnn3C)c(=S)n12 | > 100
Cc1ccc(-n2cnc3c(N)nc(N)nc32)cc1 | > 100
CNc1c2cccc(C)c2nc2c(C(=O)NCCN(C)C)cccc12 | 0.88
CCC(Sc1cc(Cl)c(C)cc1S(=O)(=O)Nc1nc(N)nc(N(C)C)n1)C(=O)O (configuration not stated) | > 10
O=c1c(C=Nc2ccccc2Cl)c(O)n(-c2ccccc2)c(=O)n1-c1ccccc1 | > 100
CCOC(=O)NNC(=O)C1CSC(c2ccccc2)N1C(C)=O (configuration not stated) | > 100
CC(C)(C)O/C=C1/C(=O)OC2C[C@@H](O[Si](C)(C)C(C)(C)C)CC12 (some centres not stated) | > 100
COc1ccc2nc3c([N+](=O)[O-])ccc4c3c(c2c1)N=CN4CCCN(C)C | 13
O=C1CC(=O)NC(=NN2C(=O)/C(=C/C(=O)c3ccco3)N=C2c2ccccc2)N1 | > 100

Each molecule was assayed on RXF 393 renal (assay: growth of human tumour cells (NCI), 48 h).

Compound | TGI [µM]
CC(=O)Oc1cc2c(n(C)c1=O)-c1ccccc1C2 | > 100
